≈ marks a conversion by molar mass, not a printed value. Peptide text beside a SMILES is read from it. * marks the point of attachment. NHPhenethyl = c1ccc(CCN*)cc1; NHBn = c1ccc(CN*)cc1
Assays:
S. aureus = experiment: Minimal inhibitory concentration; type: cell-based
Experimental: (§1) A further compound was prepared according to the methods of the invention and Minimal Inhibitory Concentration (MIC) values obtained against a range of bacteria. • H-Arg-Tbt-Arg-NH(CH2)2 (2-Br-phenyl) Saponification of Boc-Arg-Tbt-Arg-OMe
(§2) Minimal inhibitory concentration (mg/l),

MRSA = experiment: Minimal inhibitory concentration; type: cell-based
Experimental: as §1, §2

Str. pyogenes = experiment: Minimal inhibitory concentration; type: cell-based
Experimental: as §1, §2

E. coli = experiment: Minimal inhibitory concentration; type: cell-based
Experimental: as §1, §2

trypsin = trypsin (Bos taurus, UniProt P00760); experiment: in vitro; settings: bovine, isolated trypsin from bovine pancreas, pH 8.6
Sequence of trypsin (P00760 24-246): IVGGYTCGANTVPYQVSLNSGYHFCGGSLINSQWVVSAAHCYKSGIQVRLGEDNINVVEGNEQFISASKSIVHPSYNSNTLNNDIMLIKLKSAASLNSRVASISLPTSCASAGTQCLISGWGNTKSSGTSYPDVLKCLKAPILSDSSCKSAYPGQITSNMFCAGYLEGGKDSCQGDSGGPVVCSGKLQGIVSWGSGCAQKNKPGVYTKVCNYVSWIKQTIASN
Experimental: Essentially salt-free trypsin from bovine pancreas, (T8802, 10000-15000 BAEE units/mg protein) was supplied by Sigma-Aldrich.
Each peptide was dissolved in a 0.1 M NH4HCO3 buffer (pH 6.5) to yield a final peptide concentration of 1 mg/ml. A trypsin solution was prepared by dissolving 1 mg of trypsin in 50 ml 0.1 M NH4HCO3 buffer (pH 8.2). For the stability determination, 250 μl freshly made trypsin solution and 250 μl peptide solution were incubated in 2 ml of 0.1 M NH4HCO3 buffer (pH 8.6) at 37° C. on a rocking table. Aliquots of 0.5 ml were sampled at different time intervals, diluted with 0.5 ml water:acetonitrile (60:40 v/v) containing 1% TFA and analysed by RP-HPLC as described above. Samples without trypsin addition taken at 0 h and after 20 h at 37° C. were used as negative controls. […] The plotted kinetic profiles were made on GraphPad Prism 4c.
The identity of the metabolites from the tryptic degradation was either determined by preparative trypsin degradation of the peptide, purification and structural determination by ESMS, or by chemical synthesis of authentic reference samples.

Row | SMILES | Minimal inhibitory concentration (S. aureus) [µg/mL] | Minimal inhibitory concentration (MRSA) [µg/mL] | Minimal inhibitory concentration (Str. pyogenes) [µg/mL] | Minimal inhibitory concentration (E. coli) [µg/mL] | half-life at 0.1 mg/ml (trypsin) [h]
1 | CC(C)(C)c1cc(C(C)(C)C)c2[nH]c(C(C)(C)C)c(C[C@H](NC(=O)[C@@H](N)CCCNC(=N)N)C(=O)N[C@@H](CCCNC(=N)N)C(=O)NCCc3ccccc3Br)c2c1 [—(CH2)2-(2-BrPh), H-Arg-Tbt-Arg-NH(CH2)2 (2-Br-phenyl)] | 3 (≈ 3.46 µM) | 3 (≈ 3.46 µM) | 3 (≈ 3.46 µM) | 6 (≈ 6.92 µM) | –
2 | N=C(N)NCCC[C@H](NC(=O)[C@H](Cc1c[nH]c2ccccc12)NC(=O)[C@@H](N)CCCNC(=N)N)C(=O)NCCc1ccccc1 [F] (H-Arg-Trp-Arg-NHPhenethyl) | – | – | – | – | 7
3 | N=C(N)NCCC[C@H](NC(=O)[C@H](Cc1c[nH]c2ccccc12)NC(=O)[C@@H](N)CCCNC(=N)N)C(=O)NCc1ccccc1 [E] (H-Arg-Trp-Arg-NHBn) | – | – | – | – | 1

Source: patent publication US9212202B2, “Methods of peptide modification” (Lytix Biopharma AS, priority 2007, dated 2015)
